# From patent US8859026B2, “Method for reducing methoxypyrazines in grapes and grape products” (Brock University, priority 2009, dated 2014)
# Like-named read-outs stand apart in the source and are kept apart here.
# How the values were obtained:
# [1] = biological target: T1, mouse MUPII (mMUPII), Genbank AJ309921, Uniprot P11589, SEQ ID NO: 5, recombinant (Mus musculus, UniProt P11589); experiment: 1-AMA fluorescence binding assay, mouse MUPII
# T1 construct: no tag mentioned
# T1 sequence (P11589 19-180): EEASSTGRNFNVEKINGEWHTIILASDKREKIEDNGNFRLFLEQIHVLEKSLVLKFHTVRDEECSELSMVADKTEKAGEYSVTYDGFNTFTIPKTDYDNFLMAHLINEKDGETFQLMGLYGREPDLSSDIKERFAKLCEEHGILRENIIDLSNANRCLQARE
# From the text: (§1) The excitation wavelength of 290 nm was used and fluorescence emission intensities were monitored at 504 nm, 483 nm and 486 nm for rat OBP1F, piglet OBP and mouse MUPII respectively.
# (§2) cDNA sequence encoding mature piglet OBP (Genbank AF436848) and the mouse MUPII (Genbank AJ309921) were designed for heterologous expression in the methylotrophic yeast P. pastoris as follows: at the 5′ end of coding sequences, native signal peptide sequences were removed and replaced with XhoI (CTC GAG ([SEQ ID NO: 1]) and prepro sequence of the S. cerevisiae α-mating factor (AAA AGA [SEQ ID NO:2]). A stop codon and an EcoRI restriction site were added at the 3′ terminus. The sequences were then optimized for G+C content and preferred codon usage in P. pastoris. Modified coding sequences were synthesized and cloned in frame with the α-mating factor secretion signal into the pPIC9 expression vector between the XhoI and EcoRI sites (GenScript Corp., Piscataway, N.J.). Further information about the protein sequences is provided below:
# 3. mouse MUPII (MUPIIa Genbank AJ309921, MUP BL1 gene, Uniprot ID P11589)
# (§3) Fluorescence ligand binding experiments were performed on a Photon Technology International (London, Canada) Quanta Master Model QM2001 fluorometer at room temperature (19-20° C.), using 1 cm light path quartz cuvettes (Hellma). Slit width of 2 nm was used for excitation and emission for assaying a proteins except ratOBP1F, for which excitation and emission slit width of 6 nm was used.
# (§4) Binding curves with 1-AMA were obtained by titrating protein (2 μM) in 50 mM sodium phosphate, pH 7.2 with ligand (0-50 uM, prepared gravimetrically as a 1 mM stock solution in 10% v/v methanol). To examine dependence of binding on pH, fluorescence spectra was measured in 50 mM citrate phosphate solutions at pH 3.0, 4.0 and 5.0. Fluorescence of 1-AMA was excited at 290 nm and emission was scanned from 450 to 550 nm.
# (§5) Dissociation constants were calculated from a plot of fluorescence intensity against total ligand concentration fitted with non linear regression using Prism 3.02 (GraphPad Software Inc., La Jolla, Calif.).
# [2] = biological target: T2, piglet OBP (pIOBP), Genbank AF436848, Uniprot Q8WMH1-1, SEQ ID NO: 3 (codon optimized) / SEQ ID NO: 4 (non-optimized), recombinant (Sus scrofa, UniProt P81245); experiment: 1-AMA fluorescence binding assay, piglet OBP; set-up: species or system pig (piglet/prepubertal)
# T2 construct: S. cerevisiae alpha-mating factor secretion signal (pPIC9) (N); made in house; host or cells: Pichia pastoris GS115 (vector pPIC9)
# T2 sequence (P81245 with tags, fused parts or gaps): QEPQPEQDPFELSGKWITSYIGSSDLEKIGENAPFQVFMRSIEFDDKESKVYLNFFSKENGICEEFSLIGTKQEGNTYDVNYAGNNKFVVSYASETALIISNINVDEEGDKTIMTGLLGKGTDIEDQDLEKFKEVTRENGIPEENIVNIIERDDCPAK
# From the text: as §1, §2
# Uniprot ID Q8WMH1-1, Genbank AF436848. *chain comprises 158 residues *differs from adult isoform/variant by an additional lysine residue at the C terminal end. Tissue source for cloning and binding: vomeronasal organ, but the isomer is also found in both vomeronasal and nasal mucosa.
# as §3, §4, §5
# rat OBP-1F = details: 1-AMA; Briand et al. 2000 (21); cited from earlier work
# [3] = biological target: T3, rat OBP1F (rat OBP variant 1F), recombinant (Rattus norvegicus, UniProt P08937); experiment: 1-AMA fluorescence binding assay, rat OBP-1F
# T3 construct: made in house; host or cells: Pichia pastoris (vector pPIC9; recombinant strain provided by J.-C; Pernollet, INRA)
# T3 sequence (P08937 16-172): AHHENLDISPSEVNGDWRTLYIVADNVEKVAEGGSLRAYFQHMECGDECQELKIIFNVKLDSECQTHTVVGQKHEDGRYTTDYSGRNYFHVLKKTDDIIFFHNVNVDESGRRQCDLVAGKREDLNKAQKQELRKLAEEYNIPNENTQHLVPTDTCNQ
# Procedure: as §1, §3, §4, §5
# [4] = biological target: adult porcine OBP isoform; details: 1-AMA; Paolini et al. 1999 (26), Ramoni et al. 2007 (27); cited from earlier work
# [5] = tested on: pOBP, adult porcine OBP isoform; details: isothermal calorimetry, Burova et al., 1999, cited from earlier work
# [6] = biological target: mMUPII (mouse major urinary protein isoform II); details: cited from earlier work
# pOBP (adult porcine OBP) = details: cited from earlier work
# piglet OBP = biological target: T4, piglet OBP (Sus scrofa, UniProt P81245); experiment: Competitive fluorescent binding assay: displacement of 1-AMA from piglet OBP by odorants IPMP and IBMP; set-up: species or system porcine; details: for Kd: calculated from IC50, read-out: Kd for piglet OBP
# T4 construct: made in house; host or cells: Pichia pastoris GS115 (pPIC9, alpha-mating factor secretion signal)
# T4 sequence (P81245 with tags, fused parts or gaps): T2 sequence (P81245 with tags, fused parts or gaps)
# Procedure: (§6) The interaction of odorants with AMA complex was examined by monitoring the decrease in fluorescence intensity of protein/1-AMA complex upon the addition of competitor compounds.
# (§7) In competitive binding assays, 1-AMA (10 μM) was equilibrated with protein (2 μM) at pH 7.2 50 mM sodium phosphate buffer and pH 3.0 50 mM citrate phosphate buffer, and titrated with increasing concentrations of odorants (0-100 μM) solubilized in 10% v/v methanol.
# (§8) The affinity of OBPs for odorants was estimated by plotting the decrease of intensity of 1-AMA fluorescence at the emission maximum, (22). Odorant concentrations causing fluorescence decay to half-maximal intensity (IC50 values) were determined from the plot of (I−Imin)/(I0−Imin) against the competitor concentration; I0 is the maximum of fluorescence intensity of the protein/1-AMA complex; I is the fluorescence intensity after addition of an aliquot of competitor, and Imin the fluorescence intensity at saturating concentration of the competitor.
# [7] = biological target: T2, piglet OBP (pIOBP), Genbank AF436848, Uniprot Q8WMH1-1, SEQ ID NO: 3 (codon optimized) / SEQ ID NO: 4 (non-optimized), recombinant; experiment: Competitive displacement of 1-AMA, piglet OBP; type: binding, pig (piglet/prepubertal)
# Procedure: (§9) Competitive binding assays were done with 2 uM protein pre equilibrated with five fold 1-AMA concentration (10 uM). Fluorescence decay of the protein/1-AMA complex is expressed as a ratio of initial and final fluorescence against the total competitor concentration: (I−Imin)/(Io−Imin) where Io=fluorescence intensity of the protein/1-AMA complex, Imin=fluorescence intensity at saturation, and I=fluorescence intensity at a given competitor concentration.
# as §3, §6, §7, §8
# rOBP-1F = details: cited from earlier work
# [8] = biological target: T3, rat OBP1F (rat OBP variant 1F), recombinant; experiment: Competitive displacement of 1-AMA, rat OBP-1F; type: binding; details: pH 7.2
# Procedure: as §9, §3, §6, §7, §8
# rat OBP = details: Nespoulous et al 2004; read-out: apparent Kd; cited from earlier work
# [9] = biological target: T1, mouse MUPII (mMUPII), Genbank AJ309921, Uniprot P11589, SEQ ID NO: 5, recombinant; experiment: Competitive displacement of 1-AMA, mouse MUPII; type: binding; details: for IC50: displacement of 1-AMA, 2 uM protein, 10 uM 1-AMA
# Procedure: as §9, §3, §6, §7, §8
smiles,measurement,setting,value
"Nc1cccc2cc3ccccc3cc12 [1-AMA, 1-aminoanthracene]",Kd,[1]; pH 3.0,3480 nM
same,Kd,[1]; pH 4.0,1970 nM
same,Kd,[1]; pH 5.0,1850 nM
same,Kd,[1]; pH 7.2,490 nM
same,binding capacity compared with pH 7.2,[1]; pH 3.0,less than halved
same,decrease in binding affinity compared with pH 7.2,[1]; pH 3.0,7 fold
same,decrease in binding affinity compared with pH 7.2,[1]; pH 4.0,about 4 fold
same,decrease in binding affinity compared with pH 7.2,[1]; pH 5.0,about 4 fold
same,Kd,[2]; pH 3.0,4300 nM
same,decrease in binding affinity compared with pH 7.2,[2]; pH 3.0,3.4 fold
same,maximal binding capacity compared with pH 7.2,[2]; pH 3.0,approximately halved
same,Kd,[2]; pH 4.0,2660 nM
same,decrease in binding affinity compared with pH 7.2,[2]; pH 4.0,2 fold
same,Kd,[2]; pH 5.0,1450 nM
same,Kd,[2]; pH 7.2,1260 nM
same,Kd,rat OBP-1F,600 nM
same,saturable binding,[3]; pH 3.0,saturable binding curve was not detected
same,Kd,[3]; pH 5.0,1700 nM
same,Kd,[3]; pH 7.2,1640 nM
same,Kd,[4],1200 to 1300 nM
"COc1nccnc1CC(C)C [IBMP, 2-isobutyl-3-methoxypyrazine]",molar binding stoichiometry n,[5]; pH 3.5,0.417
same,molar binding stoichiometry n,[5]; pH 4.1,1.080
same,affinity to IBMP,"[5]; pH 6.6, pH 4.1 and pH 3.5",remained relatively unchanged
same,molar binding stoichiometry n,[5]; pH 6.6,1.220
same,Kd,[6],940 nM
same,Kd,pOBP (adult porcine OBP),500 to 900 nM
same,IC50,piglet OBP; pH 3.0,3650 nM
same,"affinity for pIOBP, more strongly than IPMP",piglet OBP; pH 3.0,1.6 fold
same,Kd,piglet OBP; pH 3.0,1470 nM
same,IC50,piglet OBP; pH 7.2,6860 nM
same,"affinity for pIOBP, more strongly than IPMP",piglet OBP; pH 7.2,about 5 fold
same,Kd,piglet OBP; pH 7.2,940 nM
same,Kd,[7],1000 nM
same,displacement of fluorescence,[7]; pH 3.0,complete displacement
same,displacement of 1-AMA fluorescence,[7]; pH 7.2,complete displacement
same,Kd,rOBP-1F,69 nM
same,Kd,[8]; calculated from IC50,43 nM
same,IC50,"[8]; displacement of 1-AMA, 2 uM protein, 10 uM 1-AMA",250 nM
same,binding to rOBP-1F more strongly than to mMUPII,[8],~20 fold
same,binding to rOBP-1F more strongly than to pIOBP,[8],about 10 fold
same,displacement of 1-AMA fluorescence,[8],complete displacement
same,Kd,rat OBP,69 nM
same,Kd,"[9]; calculated from IC50, pH 3.0, read-out: Kd",1080 nM
same,Kd,"[9]; calculated from IC50, pH 7.2, read-out: Kd",480 nM
same,IC50,[9]; pH 3.0,3410 nM
same,IC50,[9]; pH 7.2,8070 nM
same,displacement of fluorescence,[9]; pH 3.0,complete displacement
same,Kd,"[9]; pH 3.0, read-out: apparent Kd",1000 nM
same,displacement of 1-AMA fluorescence,[9]; pH 7.2,complete displacement
same,Kd,"[9]; pH 7.2, read-out: apparent Kd",500 nM
